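Cells were grown in 96-well plates and exposed to each compound for 48 hours at five concentrations; endpoints were interpolated linearly between bracketing concentrations, or set to the highest concentration if not reached. TGI denotes the concentration required for complete inhibition of growth.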
Legend:
Experiment in all cases: NCI-60 cell line screen, 48 h
TK-10 renal = tested on: TK-10 renal
OVCAR-3 ovarian = tested on: OVCAR-3 ovarian
OVCAR-8 ovarian = tested on: OVCAR-8 ovarian
HCT-116 colon = tested on: HCT-116 colon
K-562 leukemia = tested on: K-562 leukemia
HT29 colon = tested on: HT29 colon
HOP-62 NSCLC = tested on: HOP-62 NSCLC
UACC-62 melanoma = tested on: UACC-62 melanoma
IGROV1 ovarian = tested on: IGROV1 ovarian
UACC-257 melanoma = tested on: UACC-257 melanoma
A498 renal = tested on: A498 renal
SN12C renal = tested on: SN12C renal
RXF 393 renal = tested on: RXF 393 renal
786-0 renal = tested on: 786-0 renal
SK-MEL-2 melanoma = tested on: SK-MEL-2 melanoma
SF-539 CNS = tested on: SF-539 CNS
HCT-15 colon = tested on: HCT-15 colon
SNB-75 CNS = tested on: SNB-75 CNS
LXFL 529 NSCLC = tested on: LXFL 529 NSCLC
SK-MEL-28 melanoma = tested on: SK-MEL-28 melanoma
U251 CNS = tested on: U251 CNS
NCI-H23 lung = tested on: NCI-H23 lung
XF 498 CNS = tested on: XF 498 CNS
SK-OV-3 ovarian = tested on: SK-OV-3 ovarian
HCC-2998 colon = tested on: HCC-2998 colon
ACHN renal = tested on: ACHN renal
HL-60(TB) leukemia = tested on: HL-60(TB) leukemia
MALME-3M melanoma = tested on: MALME-3M melanoma
SNB-19 CNS = tested on: SNB-19 CNS
MOLT-4 leukemia = tested on: MOLT-4 leukemia
RPMI-8226 leukemia = tested on: RPMI-8226 leukemia
RXF-631 renal = tested on: RXF-631 renal
NCI-H226 lung = tested on: NCI-H226 lung
OVCAR-4 ovarian = tested on: OVCAR-4 ovarian
SF-295 CNS = tested on: SF-295 CNS
M19-MEL melanoma = tested on: M19-MEL melanoma
SNB-78 CNS = tested on: SNB-78 CNS
HOP-18 NSCLC = tested on: HOP-18 NSCLC
KM12 colon = tested on: KM12 colon
SF-268 CNS = tested on: SF-268 CNS
DMS 114 small cell lung = tested on: DMS 114 small cell lung
CAKI-1 renal = tested on: CAKI-1 renal
UO-31 renal = tested on: UO-31 renal
HOP-92 NSCLC = tested on: HOP-92 NSCLC
KM20L2 colon = tested on: KM20L2 colon
DLD-1 colon = tested on: DLD-1 colon
COLO 205 colon = tested on: COLO 205 colon
NCI-H460 lung = tested on: NCI-H460 lung
M14 melanoma = tested on: M14 melanoma
EKVX NSCLC = tested on: EKVX NSCLC
NCI-H522 lung = tested on: NCI-H522 lung
OVCAR-5 ovarian = tested on: OVCAR-5 ovarian
DMS 273 small cell lung = tested on: DMS 273 small cell lung
LOX IMVI melanoma = tested on: LOX IMVI melanoma
CCRF-CEM leukemia = tested on: CCRF-CEM leukemia
SW-620 colon = tested on: SW-620 colon
SR leukemia = tested on: SR leukemia
A549 NSCLC = tested on: A549 NSCLC
SK-MEL-5 melanoma = tested on: SK-MEL-5 melanoma

O=[N+]([O-])c1ccc(C=NC23CC4CC(CC(C4)C2)C3)cc1
TGI (TK-10 renal): > 100 µM
TGI (OVCAR-3 ovarian): > 100 µM
TGI (OVCAR-8 ovarian): > 100 µM
TGI (HCT-116 colon): > 100 µM
TGI (K-562 leukemia): > 100 µM
TGI (HT29 colon): > 100 µM
TGI (HOP-62 NSCLC): > 100 µM
TGI (UACC-62 melanoma): > 100 µM
TGI (IGROV1 ovarian): > 100 µM
TGI (UACC-257 melanoma): > 100 µM
TGI (A498 renal): > 100 µM
TGI (SN12C renal): > 100 µM
TGI (RXF 393 renal): > 100 µM
TGI (786-0 renal): > 100 µM
TGI (SK-MEL-2 melanoma): > 100 µM
TGI (SF-539 CNS): > 100 µM
TGI (HCT-15 colon): > 100 µM
TGI (SNB-75 CNS): > 100 µM
TGI (LXFL 529 NSCLC): > 100 µM
TGI (SK-MEL-28 melanoma): > 100 µM
TGI (U251 CNS): > 100 µM
TGI (NCI-H23 lung): > 100 µM
TGI (XF 498 CNS): > 100 µM
TGI (SK-OV-3 ovarian): > 100 µM
TGI (HCC-2998 colon): > 100 µM
TGI (ACHN renal): > 100 µM
TGI (HL-60(TB) leukemia): > 100 µM
TGI (MALME-3M melanoma): > 100 µM
TGI (SNB-19 CNS): > 100 µM
TGI (MOLT-4 leukemia): > 100 µM
TGI (RPMI-8226 leukemia): > 100 µM
TGI (RXF-631 renal): > 100 µM
TGI (NCI-H226 lung): > 100 µM
TGI (OVCAR-4 ovarian): > 100 µM
TGI (SF-295 CNS): > 100 µM
TGI (M19-MEL melanoma): > 100 µM
TGI (SNB-78 CNS): > 100 µM
TGI (HOP-18 NSCLC): > 100 µM
TGI (KM12 colon): > 100 µM
TGI (SF-268 CNS): > 100 µM
TGI (DMS 114 small cell lung): > 100 µM
TGI (CAKI-1 renal): > 100 µM
TGI (UO-31 renal): > 100 µM
TGI (HOP-92 NSCLC): > 100 µM
TGI (KM20L2 colon): > 100 µM
TGI (DLD-1 colon): > 100 µM
TGI (COLO 205 colon): > 100 µM
TGI (NCI-H460 lung): > 100 µM
TGI (M14 melanoma): > 100 µM
TGI (EKVX NSCLC): > 100 µM
TGI (NCI-H522 lung): > 100 µM
TGI (OVCAR-5 ovarian): > 100 µM
TGI (DMS 273 small cell lung): > 100 µM
TGI (LOX IMVI melanoma): > 100 µM
TGI (CCRF-CEM leukemia): > 100 µM

CC1(C)CC(N(C(=O)/C=C/c2ccc([N+](=O)[O-])o2)C2CCCCC2)CC(C)(C)N1
TGI (TK-10 renal): 35.8 µM
TGI (OVCAR-3 ovarian): 25.2 µM
TGI (OVCAR-8 ovarian): 17.8 µM
TGI (HCT-116 colon): 12 µM
TGI (HT29 colon): 15.4 µM
TGI (HOP-62 NSCLC): 34.5 µM
TGI (UACC-62 melanoma): 21.6 µM
TGI (IGROV1 ovarian): 29.1 µM
TGI (UACC-257 melanoma): 23.1 µM
TGI (A498 renal): 30.6 µM
TGI (SN12C renal): 18.9 µM
TGI (786-0 renal): 19.4 µM
TGI (SF-539 CNS): 21.8 µM
TGI (HCT-15 colon): 20.2 µM
TGI (SW-620 colon): 6.01 µM
TGI (SNB-75 CNS): 22.3 µM
TGI (LXFL 529 NSCLC): 17.8 µM
TGI (SK-MEL-28 melanoma): 25.1 µM
TGI (U251 CNS): 18.1 µM
TGI (NCI-H23 lung): 21.3 µM
TGI (XF 498 CNS): 23.5 µM
TGI (SK-OV-3 ovarian): 43.6 µM
TGI (HCC-2998 colon): 23.6 µM
TGI (ACHN renal): 25.4 µM
TGI (SR leukemia): 21.2 µM
TGI (HL-60(TB) leukemia): 6.4 µM
TGI (SNB-19 CNS): 26.3 µM
TGI (A549 NSCLC): 29.7 µM
TGI (MOLT-4 leukemia): 18.2 µM
TGI (RPMI-8226 leukemia): 12.9 µM
TGI (RXF-631 renal): 23.4 µM
TGI (OVCAR-4 ovarian): 22.2 µM
TGI (SF-295 CNS): 26.4 µM
TGI (M19-MEL melanoma): 16.9 µM
TGI (SNB-78 CNS): 26.5 µM
TGI (HOP-18 NSCLC): 37.4 µM
TGI (KM12 colon): 22.5 µM
TGI (SF-268 CNS): 20.5 µM
TGI (DMS 114 small cell lung): 6.87 µM
TGI (CAKI-1 renal): 17.2 µM
TGI (UO-31 renal): 24.5 µM
TGI (HOP-92 NSCLC): 14.8 µM
TGI (KM20L2 colon): 18.8 µM
TGI (DLD-1 colon): 3.38 µM
TGI (NCI-H460 lung): 13.9 µM
TGI (SK-MEL-5 melanoma): 21.8 µM
TGI (M14 melanoma): 9.54 µM
TGI (EKVX NSCLC): 27 µM
TGI (NCI-H522 lung): 21.2 µM
TGI (OVCAR-5 ovarian): 38.4 µM
TGI (DMS 273 small cell lung): 18 µM
TGI (LOX IMVI melanoma): 25.4 µM
TGI (CCRF-CEM leukemia): 13.3 µM

O=C(CCC(=O)C1CCC/C1=N/O)Nc1ccc(Cl)cc1 (centres undefined)
TGI (TK-10 renal): > 100 µM
TGI (OVCAR-3 ovarian): > 100 µM
TGI (OVCAR-8 ovarian): > 100 µM
TGI (HCT-116 colon): > 100 µM
TGI (K-562 leukemia): > 100 µM
TGI (HT29 colon): > 100 µM
TGI (HOP-62 NSCLC): > 100 µM
TGI (UACC-62 melanoma): > 100 µM
TGI (IGROV1 ovarian): > 100 µM
TGI (UACC-257 melanoma): > 100 µM
TGI (A498 renal): > 100 µM
TGI (SN12C renal): > 100 µM
TGI (786-0 renal): > 100 µM
TGI (SK-MEL-2 melanoma): > 100 µM
TGI (SF-539 CNS): > 100 µM
TGI (HCT-15 colon): > 100 µM
TGI (SW-620 colon): > 100 µM
TGI (SNB-75 CNS): > 100 µM
TGI (LXFL 529 NSCLC): > 100 µM
TGI (SK-MEL-28 melanoma): > 100 µM
TGI (U251 CNS): > 100 µM
TGI (NCI-H23 lung): > 100 µM
TGI (XF 498 CNS): > 100 µM
TGI (SK-OV-3 ovarian): > 100 µM
TGI (HCC-2998 colon): > 100 µM
TGI (ACHN renal): > 100 µM
TGI (SR leukemia): > 100 µM
TGI (HL-60(TB) leukemia): > 100 µM
TGI (MALME-3M melanoma): > 100 µM
TGI (SNB-19 CNS): > 100 µM
TGI (A549 NSCLC): > 100 µM
TGI (MOLT-4 leukemia): > 100 µM
TGI (RPMI-8226 leukemia): > 100 µM
TGI (RXF-631 renal): > 100 µM
TGI (NCI-H226 lung): > 100 µM
TGI (OVCAR-4 ovarian): > 100 µM
TGI (SF-295 CNS): > 100 µM
TGI (M19-MEL melanoma): > 100 µM
TGI (SNB-78 CNS): > 100 µM
TGI (HOP-18 NSCLC): > 100 µM
TGI (KM12 colon): > 100 µM
TGI (SF-268 CNS): > 100 µM
TGI (CAKI-1 renal): > 100 µM
TGI (UO-31 renal): > 100 µM
TGI (HOP-92 NSCLC): > 100 µM
TGI (KM20L2 colon): > 100 µM
TGI (DLD-1 colon): > 100 µM
TGI (COLO 205 colon): > 100 µM
TGI (NCI-H460 lung): > 100 µM
TGI (SK-MEL-5 melanoma): > 100 µM
TGI (M14 melanoma): > 100 µM
TGI (EKVX NSCLC): > 100 µM
TGI (NCI-H522 lung): > 100 µM
TGI (OVCAR-5 ovarian): > 100 µM
TGI (DMS 273 small cell lung): > 100 µM
TGI (CCRF-CEM leukemia): > 100 µM
